Results published in patent US5750540A, “1,4-di-substituted piperidine derivatives” (Banyu Pharmaceutical Co., Ltd., priority 1995, dated 1998).

Tests used:
[1] = system: M1 receptors (vas deferens); assay: Antagonism against M1 receptors in an isolated rabbit vas deferens; conditions: in vitro, agonist McN A-343, 10 min
Description: 1) Tests for antagonism against the M1 receptors in an isolated rabbit vas deferens
These tests were performed according to an ordinary method. A male Japanese albino rabbit (weighing bout 3 kg) was killed by exsanguination from a femoral artery under anesthesia with pentobarbital, and the vasa deferentia were excised. Portions (1 cm long) thereof adjacent to the prostate were used as vas deferens preparations. A preparation was longitudinally suspended in a Magnus tube filled with 20 ml of Krebs-Henseleit nutrient solution [gassed with 95% O2 -5% CO2 and kept at 32° C.; containing […] yohimbine (a2 antagonist)] with an initial tension of 1.0 g. The tension of the preparation was recorded isometrically. After the preparation was equilibrated for 30 minutes, electrical stimuli (0.5 ms, 30 V) were applied thereto by means of a bipolar electrode to induce contractions at intervals of 20 seconds. […] Responses to McN A-343 were expressed as percentages based on the amount of contraction before administration of McN A-343. The antagonistic potency (KB value) of the test compound was determined from the degree of shift of the dose-response curve obtained by treatment with the test compound.

[2] = molecular target: T1, M2 receptors (right atrium) (Rattus norvegicus, UniProt P10980); assay: Antagonism against M2 receptors in an isolated rat right atrium; conditions: in vitro, agonist carbachol
T1 construct: the right atrium was excised; from tissue; host or cells: isolated rat right atrium
T1 sequence (P10980 1-466): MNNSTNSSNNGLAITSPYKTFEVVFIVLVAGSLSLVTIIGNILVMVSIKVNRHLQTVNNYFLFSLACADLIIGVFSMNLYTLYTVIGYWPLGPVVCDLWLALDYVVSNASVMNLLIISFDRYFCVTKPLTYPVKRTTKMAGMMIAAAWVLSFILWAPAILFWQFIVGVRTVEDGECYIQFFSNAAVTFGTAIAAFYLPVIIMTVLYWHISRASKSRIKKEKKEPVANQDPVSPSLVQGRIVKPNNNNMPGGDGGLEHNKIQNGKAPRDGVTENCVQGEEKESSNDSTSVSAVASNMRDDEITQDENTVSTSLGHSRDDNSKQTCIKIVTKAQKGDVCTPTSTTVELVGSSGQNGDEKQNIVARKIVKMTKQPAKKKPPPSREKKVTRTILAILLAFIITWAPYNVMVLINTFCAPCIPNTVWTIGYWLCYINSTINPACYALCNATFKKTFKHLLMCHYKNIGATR
Description: 2) Tests for antagonism against the M2 receptors in an isolated rat right atrium
These tests were performed according to an ordinary method. A male SD strain rat (weighing 300-500 g) was killed by exsanguination, and the right atrium was excised. This preparation was isometrically suspended in a Magnus tube filled with 20 ml of Krebs-Henseleit nutrient solution (gassed with 95% O2 -5% CO2 and kept at 32° C.) with an initial tension of 0.5 g. The heart rate was recorded with a heart rate counter. After the preparation was equilibrated for 30 minutes, carbachol (10^-9 to 10^-6 M) was cumulatively administered from the lowermost concentration in three-fold increasing doses. Thus, a decrease in heart rate was measured to obtain a dose-response curve for the control experiment. After the preparation was washed with fresh solution to restore the heart rate, a test compound was administered thereto. Ten minutes later, carbachol was cumulatively administered again. Responses to carbachol were expressed as percentages based on the heart rate before administration of carbachol. The antagonistic potency (KB value) of the test compound (i.e., a compound in accordance with the present invention) was determined from the degree of shift of the dose-response curve obtained by treatment with the test compound.

muscarinic M3 receptor = muscarinic M3 receptor (Rattus norvegicus, UniProt P08483); assay: in vivo; design: from tissue; host or cells: living rat, airways; conditions: iv, read-out: Salivary secretion ID50
Chain of muscarinic M3 receptor (P08483 whole entry): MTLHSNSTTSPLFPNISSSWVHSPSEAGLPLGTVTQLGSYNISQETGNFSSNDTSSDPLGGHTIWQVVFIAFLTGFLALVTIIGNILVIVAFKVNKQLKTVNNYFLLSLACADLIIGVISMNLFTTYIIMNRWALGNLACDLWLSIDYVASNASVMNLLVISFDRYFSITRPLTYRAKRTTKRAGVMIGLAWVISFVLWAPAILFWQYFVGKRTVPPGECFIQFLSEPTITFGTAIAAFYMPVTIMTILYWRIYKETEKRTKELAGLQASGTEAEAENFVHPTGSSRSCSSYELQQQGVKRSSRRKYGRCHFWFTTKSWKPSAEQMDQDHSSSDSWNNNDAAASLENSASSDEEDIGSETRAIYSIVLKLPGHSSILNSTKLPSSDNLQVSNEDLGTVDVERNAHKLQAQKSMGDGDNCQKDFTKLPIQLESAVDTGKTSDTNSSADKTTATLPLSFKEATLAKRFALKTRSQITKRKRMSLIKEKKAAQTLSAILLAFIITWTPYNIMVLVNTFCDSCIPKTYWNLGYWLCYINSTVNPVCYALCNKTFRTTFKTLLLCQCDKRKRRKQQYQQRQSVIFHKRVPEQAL
Description: Tests for antagonism against muscarinic M3 receptor (in vivo)
2) Tests for salivary secretion in rats
Five- to seven-weeks-old male rats of the Sprague-Dawley strain were anesthetized with sodium pentobarbital (65 mg/kg, i.p.), and a cannula was inserted into the right jugular vein for purposes of drug administration. A test compound was administered intravenously. Five minutes later, carbachol (10 μg/kg, i.v.) was administered to evoke salivary secretion. For each rat, saliva collection was started immediately after carbachol administration and continued for ten minutes. This was carried out by inserting glass capillaries (Drummond, 100 μl) into the oral cavity of the rat at intervals of one minute. The amount of collected saliva was determined on the assumption that a length of 75 mm of the glass capillary corresponded to 100 μl. Physiological saline was used in the control group. The ID50 value was calculated from the dose-response curve of the test compound using probit analysis and defined as the drug dose that inhibited the carbachol-induced salivation in the control group by 50%.

## CC(C)=CCCN1CCC(NC(=O)C(O)(c2ccccc2)C2CCC2)CC1 (stereo not drawn) [Example 1, N-[1-(4-methyl-3-pentenyl)-piperidin-4-yl]-2-cyclobutyl-2-hydroxy-2-phenylacetamide]
[1]
  Kb: 0.12 µM
[2]
  Kb: 1.5 µM
Muscarinic M3 receptor
  ED50: 0.19 mg/kg
